Laboratory results reported in ChEMBL document CHEMBL3774317, “Design and synthesis of novel tamoxifen analogues that avoid CYP2D6 metabolism” (Eur J Med Chem, 2016).

Key:
[1] = system: MCF7; assay: Antiproliferative activity against human MCF7 cells after 72 hrs by MTT assay
[2] = target: T1, Estrogen receptor (Homo sapiens, UniProt P03372)
T1 sequence (P03372 whole entry): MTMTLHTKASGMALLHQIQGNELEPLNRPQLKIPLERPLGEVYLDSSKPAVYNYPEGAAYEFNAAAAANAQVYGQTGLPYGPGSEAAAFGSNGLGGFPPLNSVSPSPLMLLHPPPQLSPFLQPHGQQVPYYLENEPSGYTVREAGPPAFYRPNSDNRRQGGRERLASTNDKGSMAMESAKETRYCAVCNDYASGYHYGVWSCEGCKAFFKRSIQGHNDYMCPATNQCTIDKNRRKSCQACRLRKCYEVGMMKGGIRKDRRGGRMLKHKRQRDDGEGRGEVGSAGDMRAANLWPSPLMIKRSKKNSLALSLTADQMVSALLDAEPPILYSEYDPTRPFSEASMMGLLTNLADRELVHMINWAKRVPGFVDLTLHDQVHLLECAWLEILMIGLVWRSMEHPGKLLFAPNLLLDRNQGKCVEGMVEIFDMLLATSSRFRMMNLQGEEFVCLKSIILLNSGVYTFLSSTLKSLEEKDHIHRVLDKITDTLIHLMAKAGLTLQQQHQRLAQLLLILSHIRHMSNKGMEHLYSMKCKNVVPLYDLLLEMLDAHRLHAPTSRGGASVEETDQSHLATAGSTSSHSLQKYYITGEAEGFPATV
Description: Displacement of [3H]-E2 from human ER-alpha incubated for 16 to 20 hrs by liquid scintillation counting analysis

[3] = Cytotoxicity against human SKOV3 cells assessed as growth inhibition after 48 hrs by SRB assay; type: functional; details: SK-OV-3, 48 h
[4] = system: MDA-MB-468; assay: Cytotoxicity against human MDA-MB-468 cells assessed as growth inhibition after 48 hrs by SRB assay; type: functional; details: MDA-MB-468, 48 h
[5] = Cytotoxicity against human HCT15 cells assessed as growth inhibition after 48 hrs by SRB assay; type: functional; details: HCT-15, 48 h
[6] = system: MCF7; assay: Cytotoxicity against human MCF7 cells assessed as growth inhibition after 48 hrs by SRB assay; type: functional; details: MCF7, 48 h
[7] = system: MDA-MB-435; assay: Cytotoxicity against human MDA-MB-435 cells assessed as growth inhibition after 48 hrs by SRB assay; type: functional; details: MDA-MB-435, 48 h
[8] = Cytotoxicity against human SNB75 cells assessed as growth inhibition after 48 hrs by SRB assay; type: functional; details: SNB-75, 48 h
[9] = Cytotoxicity against human UO31 cells assessed as growth inhibition after 48 hrs by SRB assay; type: functional; details: UO-31, 48 h
[10] = system: EKVX; assay: Cytotoxicity against human EKVX cells assessed as growth inhibition after 48 hrs by SRB assay; type: functional
[11] = Cytotoxicity against human MOLT4 cells assessed as growth inhibition after 48 hrs by SRB assay; type: functional; details: MOLT-4, 48 h
[12] = target: Estrogen receptor beta (Homo sapiens, UniProt Q92731)
Chain of Estrogen receptor beta (Q92731 whole entry): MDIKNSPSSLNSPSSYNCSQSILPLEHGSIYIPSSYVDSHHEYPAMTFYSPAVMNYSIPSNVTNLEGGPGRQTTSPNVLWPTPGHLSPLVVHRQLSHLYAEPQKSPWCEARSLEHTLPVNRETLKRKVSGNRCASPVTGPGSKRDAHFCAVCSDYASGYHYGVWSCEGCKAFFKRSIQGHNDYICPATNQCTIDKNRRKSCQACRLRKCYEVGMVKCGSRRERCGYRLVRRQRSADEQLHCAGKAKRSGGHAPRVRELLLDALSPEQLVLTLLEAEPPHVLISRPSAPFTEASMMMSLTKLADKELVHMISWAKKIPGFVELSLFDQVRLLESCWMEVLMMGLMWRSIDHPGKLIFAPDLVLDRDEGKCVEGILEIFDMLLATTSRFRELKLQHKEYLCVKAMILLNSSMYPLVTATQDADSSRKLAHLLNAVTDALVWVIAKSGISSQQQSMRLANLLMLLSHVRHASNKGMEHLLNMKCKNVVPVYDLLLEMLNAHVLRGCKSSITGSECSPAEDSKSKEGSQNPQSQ
Description: Displacement of [3H]-E2 from human ER-beta incubated for 16 to 20 hrs by liquid scintillation counting analysis

With `CC(=O)Oc1ccc(/C(=C(\C)c2ccccc2)c2ccc(OCCN(C)C)cc2)cc1` the IC50 ([1]; mcf7) was 2740 nM and the IC50 [2] was 22 nM.
In the case of `CCCC(=O)Oc1ccc(/C(=C(/C)c2ccccc2)c2ccc(OCCN(C)C)cc2)cc1`, the IC50 ([1]; mcf7) is reported as 3170 nM and the IC50 [2] is reported as 34.5 nM.
For `CC/C(=C(\c1ccccc1)c1ccc(OCCN(C)C)cc1)c1ccccc1` [TAMOXIFEN], the IC50 ([1]; Homo sapiens, MCF7, 72 h) was 4400 nM, the GI50 [3] was 10000 nM and the GI50 [4] was 2500 nM. It also gave a GI50 [5] of 3160 nM, a GI50 [6] of 1580 nM and a GI50 [7] of 3160 nM. The GI50 [8] was 5010 nM, the GI50 [9] was 6300 nM and the GI50 [10] was 6300 nM. The GI50 [11] was 2500 nM.
With `C/C(=C(/c1ccc(O)cc1)c1ccc(OCCN(C)C)cc1)c1ccccc1` the IC50 ([1]; mcf7) was 1480 nM and the IC50 [2] was 1.3 nM.
For `C/C(=C(/c1ccc(O)cc1)c1ccc(OCCN2CCCCC2)cc1)c1ccccc1`, the IC50 ([1]; mcf7) was 1240 nM and the IC50 [2] was 0.4 nM.
`CCCCCCCCCC(=O)Oc1ccc(/C(=C(/C)c2ccccc2)c2ccc(OCCN3CCCCC3)cc2)cc1` showed an IC50 ([1]; mcf7) of 1520 nM and an IC50 [2] of 81 nM.
With `CCCC(=O)Oc1ccc(/C(=C(/C)c2ccccc2)c2ccc(OCCN3CCCCC3)cc2)cc1` the IC50 ([1]; mcf7) was 2420 nM and the IC50 [2] was 33.3 nM.
Compound `CCCC(=O)Oc1ccc(/C(=C(/C)c2ccccc2)c2ccc(OCCN3CCCC3)cc2)cc1` has an IC50 ([1]; mcf7) of 1200 nM and an IC50 [2] of 27.1 nM.
For `CCCCCCCCCC(=O)Oc1ccc(/C(=C(/C)c2ccccc2)c2ccc(OCCN(C)C)cc2)cc1`, the IC50 ([1]; mcf7) was 1120 nM and the IC50 [2] was 31.9 nM.
With `CCC(=C(c1ccc(O)cc1)c1ccc(OCCN(C)C)cc1)c1ccccc1` the IC50 ([1]; Homo sapiens, MCF7, 72 h) was 2790 nM.
Work on `CC(=O)Oc1ccc(/C(=C(/C)c2ccccc2)c2ccc(OCCN3CCCC3)cc2)cc1` yielded an IC50 ([1]; mcf7) of 2600 nM, an IC50 [2] of 7.7 nM and an IC50 [12] of 260 nM.
`CC(=O)Oc1ccc(/C(=C(/C)c2ccccc2)c2ccc(OCCN3CCCCC3)cc2)cc1` gave an IC50 ([1]; mcf7) of 2460 nM and an IC50 [2] of 12.4 nM.
